Results taken from US4672055A, “Erythromycin salt with mucosecretolytic and fluidizing activity and pharmaceutical compositions thereof” (priority 1984, dated 1987).
Converted amounts (≈) assume the structure as drawn. Like-named read-outs stand apart in the source and are kept apart here.

Columns and labels:
[1] = Acute toxicity (LD50) in the mouse after single oral administration; assay type: in vivo, mouse (Swiss albine, female); conditions: in vivo, mortality at 14th day, read-out: DL50 (LD50)
Experimental: (§1) Method for studying LD50 in the mouse after a single oral administration.
(§2) Groups of 10 Swiss albine, female, adult (g.20-22) mice, fasting from the evening preceding the test, are treated by oral way with various doses (4 to 5) of the test drugs, dissolved/suspended in 1% hydroxyethyl cellulose (volume administered : 20ml/kg). Thereafter, the animals are fed again. (Morini MIL fodder for mice)
(§3) The 50% lethal dose (LD50) is calculated by the method of Litchfield, J.T. and Wilcoxon, F. (J. Pharmacol. 96,99-113,1949) by the mortality data as obtained at 14th day after the drug treatment.

bronchial mucus = test: Fluidizing "in vivo" activity of bronchial mucus of bronchitic rabbits (viscosity); parameters: species or system rabbit (male); conditions: oral, based on d,l-sobrerol taken equal to 100
Experimental: A method for studying viscosity of bronchial mucus of a bronchitic rabbit (R. Scuri et al-Il Farmaco, Ed.Pr. 36, 36-48, 1981).
Male rabbits weighing […], made bronchitic by sulphuric acid aerosol treatment according to the method of Cantarelli (G. Cantarelli et al--Il Farmaco, Ed. Pr. 34, 393-416, 1979), are treated with the test drugs and the bronchial mucus is collected by means of a tracheal cannula according to the procedure of R. Scuri (R. Scuri et al -Boll. Chim. Farm. 119, 181-7, 1980). Viscosity of the mucus as withdrawn is studied by using a Contraves RM16 micro viscosimeter and it is recorded by a Rheomat 15T -FC apparatus.
The activity of the compound of formula (I) of this invention is based on the one of d,1-sobrerol, taken equal to 100.

[2] = system: mucoproduction (bronchial secretion); test: Bronchosecretagogue activity (mucoproduction) in the rabbit; assay type: in vivo, rabbit (male brown); conditions: oral, percent increase of mucoproduction, period II vs I, based on d,l-trans-sobrerol taken equal to 100
Experimental: Method of mucoproduction in the rabbit according to Scuri R. et al, Boll Chim. Farm. 119, 181-7, 1980.
Male brown rabbits weighing 2.8-3.5 kg. are employed. To said animals, by surgical operation under anaesthesia, a T shaped tracheal cannula is applied, as described in the bibliographic reference mentioned above.
To the cannula, a container (a polyproylene 2 ml test tube) is applied for periodical collection of the bronchial secretion. The study of mucoproduction started at the fourth day after the operation, is divided into two 4 hour periods for collecting and measuring the mucus, and exactly from 8:30 to 12:30 (I) and from 12:30 to 16:30 (II).
The activity of each drug is tested by administering the same by oesophageal way (os) at the begining of the II period and by evaluating the percent increase of mucoproduction (weight of the mucus as collected) over the II period as compared to the I period.
The activity of the compound of formula (I), of the present invention, is based on the d,1-trans-sobrerol one, taken equal to 100.

Staph. aureus 14154 = test: Antimicrobic in vitro activity, MIC; assay type: cell-based; conditions: Mueller-Hinton medium
Experimental: (§4) Microbiologic "in vitro" tests. Tests carried out in order to evaluate the values of the Minimum Inhibiting Concentrations (MIC) are performed by the method of the substrate treated with scalar drugs concentrations, by the "multi-points inoculator" technique.
(§5) As test strains, bacteria from clinical isolation and from international culture collections are tested.
(§6) In the tables, the MIC values (mcg/ml), as obtained employing the Mueller-Hinton medium , are reported.
(§7) The MIC values in the tables refer to readings after 24 and 48 hours at 37° C.
(§8) The strains with 4 figures are of ATCC.

Strept. faecalis 8043 = test: Antimicrobic in vitro activity, MIC; assay type: cell-based; conditions: Mueller-Hinton medium
Experimental: as §4, §5, §6, §7, §8

Staph. aureus 6538 = test: Antimicrobic in vitro activity, MIC; assay type: cell-based; conditions: Mueller-Hinton medium
Experimental: as §4, §5, §6, §7, §8

[3] = system: Pseud. aerug. clin (strain 10); test: Antimicrobic in vitro activity, MIC; assay type: cell-based; conditions: Mueller-Hinton medium, 24 hours at 37° C.
Experimental: as §4, §5, §6, §7
(§9) clin = clinic isolation

Serr. marcescens clin = test: Antimicrobic in vitro activity, MIC; assay type: cell-based
Experimental: as §4, §5, §6, §7, §9

[4] = system: Pseud. aerug. clin (strain 12); test: Antimicrobic in vitro activity, MIC; assay type: cell-based; conditions: Mueller-Hinton medium, 24 hours at 37° C.
Experimental: as §4, §5, §6, §7, §9

Cand. albicans clin = test: Antimicrobic in vitro activity, MIC; assay type: cell-based; conditions: Mueller-Hinton medium
Experimental: as §4, §5, §6, §7, §9

Strept. faecalis clin = test: Antimicrobic in vitro activity, MIC; assay type: cell-based; conditions: Mueller-Hinton medium
Experimental: as §4, §5, §6, §7, §9

[5] = system: Pseud. aerug. clin (strain 11); test: Antimicrobic in vitro activity, MIC; assay type: cell-based; conditions: Mueller-Hinton medium
Experimental: as §4, §5, §6, §7, §9

[6] = system: Staph. epiderm clin (strain 4); test: Antimicrobic in vitro activity, MIC; assay type: cell-based; conditions: Mueller-Hinton medium
Experimental: as §4, §5, §6, §7, §9

Proteus vulg. X 19 = test: Antimicrobic in vitro activity, MIC; assay type: cell-based
Experimental: as §4, §5, §6, §7

Esch. coli 418 = test: Antimicrobic in vitro activity, MIC; assay type: cell-based; conditions: Mueller-Hinton medium
Experimental: as §4, §5, §6, §7

mouse = test: Acute toxicity (LD50) in the mouse after single oral administration; assay type: in vivo, mouse (Swiss albine, female); conditions: mortality at 14th day
Experimental: as §1, §2, §3

[7] = Pharmacokinetics: plasma levels of erythromycin after oral administration; assay type: in vivo, Wistar rats
Experimental: (§10) Two groups of Wistar rats (180-270g.) are utilized. To the first group the compound of formula (I) of this invention, orally (transoesophageal intubation) at the dose of 800mg/kg, is administered, whilst to the second, again by the oral way, 585 mg/kg of erythromycin are administered.
(§11) Before treatment the rats were fasting for about 15 hours and were allowed to drink ad libitum. In both cases at 0.5 h; 1h;1.5 h; 2h; 3h; 4h; 6h from administration 5 rats/time are sacrificed. The blood as collected in test tubes containing sodium heparin is centrifuged and the plasma so obtained is utilized for the quantitative analysis of erythromycin by means of the micorbiologic standard method, using Staphylococcus aureus as a test organisum (P.G. Welling and W.A. Craig, J. Pharm. Sci. 67, 1057 (1978)).

[8] = Pharmacokinetics: erythromycin in lungs after oral administration; assay type: in vivo; conditions: Wistar rats, single oral 800 mg/kg vs erythromycin 585 mg/kg; lung homogenate
Experimental: as §10, §11
From the same rats, in similar manner, the lungs are withdrawn and, after homogenizing the tissue, the erythromycin rates are evaluated.

[9] = 24 hours at 37° C., read-out: MIC
[10] = 48 hours at 37° C., read-out: MIC
[11] = Mueller-Hinton medium, 24 hours at 37° C.
[12] = Mueller-Hinton medium, 48 hours at 37° C.

CC1=CC[C@@H](C(C)(C)O)C[C@@H]1O (relative stereo) [d,l-trans-sobrerol]
LD50 at 336 h [1]: 2340 mg/kg
Fluidizing in vivo activity (relative to d,l-sobrerol = 100) (bronchial mucus): 100
Bronchosecretagogue activity (relative to d,l-trans-sobrerol = 100) [2]: 100

CC[C@H]1OC(=O)[C@H](C)[C@@H](O[C@H]2C[C@@](C)(OC)[C@@H](O)[C@H](C)O2)[C@H](C)[C@@H](O[C@@H]2O[C@H](C)C[C@H](N(C)C)[C@H]2O)[C@](C)(O)C[C@@H](C)C(=O)[C@H](C)[C@@H](O)[C@]1(C)O [erythromycin]
MIC (Staph. aureus 14154; Staphylococcus aureus, 14154, 24 hours at 37° C., read-out: MIC): 10 µg/mL (≈ 13.6 µM)
MIC (Staph. aureus 14154; Staphylococcus aureus, 14154, 48 hours at 37° C., read-out: MIC): 10 µg/mL (≈ 13.6 µM)
MIC (Strept. faecalis 8043; Enterococcus faecalis, 8043, 24 hours at 37° C., read-out: MIC): 0.3 µg/mL (≈ 0.409 µM)
MIC (Strept. faecalis 8043; Enterococcus faecalis, 8043, 48 hours at 37° C., read-out: MIC): 0.3 µg/mL (≈ 0.409 µM)
MIC (Staph. aureus 6538; Staphylococcus aureus, 6538, 24 hours at 37° C., read-out: MIC): 10 µg/mL (≈ 13.6 µM)
MIC (Staph. aureus 6538; Staphylococcus aureus, 6538, 48 hours at 37° C., read-out: MIC): 10 µg/mL (≈ 13.6 µM)
LD50 at 336 h [1]: > 5000 mg/kg
MIC ([3]; read-out: MIC): > 100 µg/mL
MIC (Serr. marcescens clin; Serratia marcescens, 24 h): 45 µg/mL (≈ 61.3 µM)
MIC (Serr. marcescens clin; Serratia marcescens, 48 h): 50 µg/mL (≈ 68.1 µM)
MIC ([4]; read-out: MIC): > 100 µg/mL
MIC (Cand. albicans clin; Candida albicans, 24 hours at 37° C., read-out: MIC): 100 µg/mL (≈ 136 µM)
MIC (Cand. albicans clin; Candida albicans, 48 hours at 37° C., read-out: MIC): 100 µg/mL (≈ 136 µM)
MIC (Strept. faecalis clin; Enterococcus faecalis, 24 hours at 37° C., read-out: MIC): 0.3 µg/mL (≈ 0.409 µM)
MIC (Strept. faecalis clin; Enterococcus faecalis, 48 hours at 37° C., read-out: MIC): 0.3 µg/mL (≈ 0.409 µM)
MIC [5, 9]: 100 µg/mL (≈ 136 µM)
MIC [5, 10]: 100 µg/mL (≈ 136 µM)
MIC [6, 9]: 10 µg/mL (≈ 13.6 µM)
MIC [6, 10]: 10 µg/mL (≈ 13.6 µM)
Fluidizing in vivo activity (relative to d,l-sobrerol = 100) (bronchial mucus): 0
MIC (Proteus vulg. X 19; 24 h): 2.5 µg/mL (≈ 3.41 µM)
MIC (Proteus vulg. X 19; 48 h): 2.5 µg/mL (≈ 3.41 µM)
MIC (Esch. coli 418; Escherichia coli, 418, 24 hours at 37° C., read-out: MIC): 25 µg/mL (≈ 34.1 µM)
MIC (Esch. coli 418; Escherichia coli, 418, 48 hours at 37° C., read-out: MIC): 25 µg/mL (≈ 34.1 µM)
Bronchosecretagogue activity (relative to d,l-trans-sobrerol = 100) [2]: 0

Erythromycinsalt of 5-(3-carboxy-1-oxopropoxy)-α, α 4-trimethyl-3-cyclohexene-1-methanol [CO/1311]
MIC (Staph. aureus 14154; 24 hours at 37° C.): 10 µg/mL
MIC (Staph. aureus 14154; 48 hours at 37° C.): 10 µg/mL
MIC (Strept. faecalis 8043; 24 hours at 37° C.): 0.3 µg/mL
MIC (Strept. faecalis 8043; 48 hours at 37° C.): 0.3 µg/mL
MIC (Staph. aureus 6538; 24 hours at 37° C.): 10 µg/mL
MIC (Staph. aureus 6538; 48 hours at 37° C.): 10 µg/mL
DL50 (LD50) (mouse): 4322.3 mg/kg
MIC [3]: > 100 µg/mL
MIC (Serr. marcescens clin; [11]): 50 µg/mL
MIC (Serr. marcescens clin; [12]): 50 µg/mL
MIC [4]: > 100 µg/mL
MIC (Cand. albicans clin; 24 hours at 37° C.): 100 µg/mL
MIC (Cand. albicans clin; 48 hours at 37° C.): 100 µg/mL
MIC (Strept. faecalis clin; 24 hours at 37° C.): 0.4 µg/mL
MIC (Strept. faecalis clin; 48 hours at 37° C.): 0.4 µg/mL
MIC ([5]; 24 hours at 37° C.): 100 µg/mL
MIC ([5]; 48 hours at 37° C.): 100 µg/mL
MIC ([6]; 24 hours at 37° C.): 10 µg/mL
MIC ([6]; 48 hours at 37° C.): 10 µg/mL
plasmatic levels of erythromycin vs equidose erythromycin administration ([7]; Wistar rats, single oral 800 mg/kg vs erythromycin 585 mg/kg, 0.5-6 h, microbiologic assay): significantly higher
bioavailability of erythromycin vs the antibiotic administered as such ([7]; rat, in vivo): improved bioavailability
Fluidizing in vivo activity (relative to d,l-sobrerol = 100) (bronchial mucus): 132
MIC (Proteus vulg. X 19; [11]): 2.5 µg/mL
MIC (Proteus vulg. X 19; [12]): 2.5 µg/mL
MIC (Esch. coli 418; 24 hours at 37° C.): 25 µg/mL
MIC (Esch. coli 418; 48 hours at 37° C.): 25 µg/mL
erythromycin rates in lungs vs erythromycin administration [8]: significantly higher
Bronchosecretagogue activity (relative to d,l-trans-sobrerol = 100) [2]: 140
